Consider 9 compounds from patent publication US4208514A, “4(3H)-Oxobenzo-2,1,3-thiadiazine-2,2-dioxides” (The Dow Chemical Company, priority 1976, dated 1980).

What is called pest or weed control is how far the test organism was held down. High values mean a strong effect, low ones a weak effect.

Common to all, as to assay type: in vivo
The test system of one experiment is Jimson Weed. Description: Selective post-emergent greenhouse test, Jimson Weed. The settings on record: post-emergence, 336 h, 2 weeks; for pest or weed control at 358.672 g/ha: 0.32 lbs/acre; for pest or weed control at 706.135 g/ha: 0.63 lbs/acre. An excerpt:
(§1) So as to illustrate clearly the phytotoxic properties of the various active ingredients of the present invention, a group of controlled greenhouse experiments is described below.
(§2) Various species of plants, both broadleaf weeds and valuable crops, were planted in beds of good agricultural soil in a greenhouse. After the plants had emerged and grown to a height of about 2-6 inches, a portion of the plants were sprayed with an aqueous mixture, made by mixing a selected active ingredient and emulsifier or dispersant with water to provide solution containing 250 or 125 ppm active ingredient, employing sufficient amounts of the treating composition to provide low post emergent application rates of about 0.63 or 0.32 pounds per acre. Other portions of the plants were left untreated to serve as controls. In each test the active ingredient was a 3-methylethyl-1H-2,1,3-benzothiadiazin-4(3H)-one-2,2-dioxide having a substituent in the one position according to the invention.
(§3) After a period of 2 weeks the selective effect of the test ingredient on the plants was evaluated by a comparison with the control group of plants.

Experiment [1] concerns Velvet Leaf. Description: Selective post-emergent greenhouse test, Velvet Leaf. The settings on record: post-emergence, 336 h, 2 weeks; for pest or weed control at 358.672 g/ha: 0.32 lbs/acre; for pest or weed control at 706.135 g/ha: 0.63 lbs/acre.
From the text: as §1, §2, §3

The next experiment has as its system Soybean. Description: Selective post-emergent greenhouse test, Soybean (crop injury). The settings on record: Glycine max, post-emergence, 336 h, 2 weeks, read-out: % Control Soybean; for plant injury at 358.672 g/ha: 0.32 lbs/acre; for plant injury at 706.135 g/ha: 0.63 lbs/acre.
From the text: as §1, §2, §3

The subject of another experiment is Cotton. In words: Selective post-emergent greenhouse test, Cotton (crop injury). The settings on record: Gossypium hirsutum, post-emergence, 336 h, post-emergent, 2 weeks, crop, read-out: % Control Cotton; for plant injury at 358.672 g/ha: 0.32 lbs/acre; for plant injury at 706.135 g/ha: 0.63 lbs/acre.
From the text: as §1, §2, §3

Another experiment concerns Nutsedge. In words: General post-emergent herbicidal activity at 10 lbs/acre, Nutsedge. The settings on record: Cyperus, post-emergence, 336 h.
From the text: (§4) Various species of plants, both broadleaf weeds and valuable crops, were planted in beds of good agricultural soil in a greenhouse. After the plants had emerged and grown to a height of about 2-6 inches, a portion of the plants were sprayed with an aqueous mixture, made by mixing a selected active ingredient and […], […] Other portions of the plants were left untreated to serve as controls. In each test the active ingredient was a 3-methylethyl-1H-2,1,3-benzothiadiazin-4(3H)-one-2,2-dioxide having a substituent in the one position according to the invention.
as §3

For another experiment, the system named is Pig Weed. Description: General post-emergent herbicidal activity at 10 lbs/acre, Pig Weed. The settings on record: post-emergence, 336 h.
From the text: as §4, §3

Another experiment deals with Annual Morning Glory. In words: General post-emergent herbicidal activity at 10 lbs/acre, Annual Morning Glory. The settings on record: Ipomoea, post-emergence, 336 h.
From the text: as §4, §3

The subject of experiment [2] is Velvet Leaf. In words: General post-emergent herbicidal activity at 10 lbs/acre, Velvet Leaf. The settings on record: post-emergence, 336 h.
From the text: as §4, §3

For the compound `CC(Cl)C(=O)N1c2ccccc2C(=O)N(C(C)C)S1(=O)=O` (centres unmarked) [COCHClCH3, 1H-2,1,3-Benzothiadiazin-4(3H)-one: 1-(2-chloro-1-oxopropyl)-3-(1-methylethyl)-; 2,2-dioxide], the pest or weed control at 358.672 g/ha in the experiment with Jimson Weed and in the experiment on Velvet Leaf [1] was 100% in each case. The pest or weed control at 706.135 g/ha in the experiment on Jimson Weed and in the experiment on Velvet Leaf [1] was 100% each time. Further, the plant injury at 358.672 g/ha in the experiment on Soybean and with Cotton was 0% throughout. Further, the plant injury at 706.135 g/ha in the experiment on Soybean turned out to be 0%; in the experiment on Cotton, 100%. For the same compound, the pest or weed control at 11208.5 g/ha worked out at 95% in the experiment on Nutsedge, 100% with Pig Weed, 100% in the experiment with Annual Morning Glory and 100% with Velvet Leaf [2].
Turning to `CC=CC(=O)N1c2ccccc2C(=O)N(C(C)C)S1(=O)=O` [COCHCHCH3, 1H-2,1,3-Benzothiadiazin-4(3H)-one: 3-(1-methylethyl)-1-(1-oxo-2-butenyl)-;2,2-dioxide], the pest or weed control at 706.135 g/ha in the experiment on Jimson Weed and in the experiment on Velvet Leaf [1] was 100% in each case. Besides, the pest or weed control at 358.672 g/ha in the experiment with Velvet Leaf [1] was 70%. In addition, the plant injury at 358.672 g/ha with Soybean and with Cotton was 0% throughout. The plant injury at 706.135 g/ha with Soybean and in the experiment on Cotton was 0% in each case. Besides, the pest or weed control at 11208.5 g/ha with Nutsedge is 90%; in the experiment with Pig Weed it was 100%; with Annual Morning Glory it was 100%; with Velvet Leaf [2], 100%.
On to `CC(=O)N1c2ccccc2C(=O)N(C(C)C)S1(=O)=O` [COCH3, 1H-2,1,3-Benzothiadiazin-4(3H)-one: 1-acetyl-3-(1-methyl-ethyl)-; 2,2-dioxide], for which the pest or weed control at 358.672 g/ha in the experiment on Jimson Weed was 60%; in the experiment on Velvet Leaf [1] it was 100%. Also, the pest or weed control at 706.135 g/ha in the experiment on Jimson Weed came out at 60%; in the experiment on Velvet Leaf [1] it was 100%. For the same compound, the plant injury at 358.672 g/ha in the experiment on Soybean was 0%; in the experiment with Cotton, 5%. The plant injury at 706.135 g/ha in the experiment with Soybean and in the experiment with Cotton was 0% in each case. Further, the pest or weed control at 11208.5 g/ha in the experiment with Nutsedge was determined as 95%; in the experiment on Pig Weed, 100%; with Annual Morning Glory, 100%; in the experiment with Velvet Leaf [2], 100%.
For the compound `C=CCOC(=O)N1c2ccccc2C(=O)N(C(C)C)S1(=O)=O` [CO2 CH2 CHCH2, 1H-2,1,3-Benzothiadiazine-1-carboxylic Acid: 3,4-dihydro-3-(1-methylethyl)-4-oxo-, 2-Propenyl Ester, 2,2-Dioxide], the pest or weed control at 358.672 g/ha with Jimson Weed and with Velvet Leaf [1] was 100% each time. Moreover, the pest or weed control at 706.135 g/ha with Jimson Weed and in the experiment on Velvet Leaf [1] was 100% throughout. The results for the plant injury at 358.672 g/ha in the experiment with Soybean and with Cotton were 0% and 50%, respectively. Moreover, the plant injury at 706.135 g/ha came to 0% with Soybean and 50% in the experiment on Cotton. Further, the pest or weed control at 11208.5 g/ha with Nutsedge amounted to 95%; with Pig Weed, 100%; with Annual Morning Glory, 100%; with Velvet Leaf [2], 100%.
Regarding `CSC(=O)N1c2ccccc2C(=O)N(C(C)C)S1(=O)=O` [COSCH3, 1H-2,1,3-Benzothiadiazin-1-carbothioic acid: 3,4-Dihydro-3-(1-methylethyl)-4-oxo-, S-methyl ester; 2,2-Dioxide], the pest or weed control at 358.672 g/ha in the experiment with Jimson Weed was 100%; in the experiment with Velvet Leaf [1], 90%. Further, the pest or weed control at 706.135 g/ha in the experiment with Jimson Weed and with Velvet Leaf [1] was 100% in each case. Besides, the plant injury at 358.672 g/ha with Soybean stood at 0%; in the experiment with Cotton, 90%. Further, the figures for the plant injury at 706.135 g/ha with Soybean and in the experiment on Cotton were 0% and 100%, respectively. Moreover, the pest or weed control at 11208.5 g/ha came to 85% in the experiment on Nutsedge, 100% with Pig Weed, 100% in the experiment with Annual Morning Glory and 100% with Velvet Leaf [2].
In the case of `COCC(=O)N1c2ccccc2C(=O)N(C(C)C)S1(=O)=O` [COCH2 OCH3, 1H-2,1,3-Benzothiadiazin-4(3H)-one: 1-methoxyacetyl-3-(1-methylethyl)-; 2,2-dioxide], the pest or weed control at 358.672 g/ha turned out to be 100% in the experiment with Jimson Weed and 80% in the experiment on Velvet Leaf [1]. Moreover, the pest or weed control at 706.135 g/ha with Jimson Weed and in the experiment with Velvet Leaf [1] was 100% each time. The plant injury at 358.672 g/ha with Soybean and with Cotton was 0% in each case. Besides, the plant injury at 706.135 g/ha in the experiment with Soybean and with Cotton was 0% in each case. In addition, the pest or weed control at 11208.5 g/ha with Nutsedge is 90%; with Pig Weed it was 100%; in the experiment with Annual Morning Glory it was 100%; in the experiment with Velvet Leaf [2] it was 100%.
As to `CCSC(=O)N1c2ccccc2C(=O)N(C(C)C)S1(=O)=O` [COSCH2 CH3, 1H-2,1,3-Benzothiadiazine-1-carbothioic acid: 3,4-Dihydro-3-(1-methylethyl)-4-oxo, S-ethyl ester; 2,2-dioxide], the pest or weed control at 358.672 g/ha with Jimson Weed and in the experiment on Velvet Leaf [1] was 100% throughout. Moreover, the pest or weed control at 706.135 g/ha in the experiment on Jimson Weed and in the experiment on Velvet Leaf [1] was 100% in each case. In addition, the plant injury at 358.672 g/ha was 0% in the experiment on Soybean and 100% in the experiment on Cotton. Besides, the plant injury at 706.135 g/ha in the experiment on Soybean is 0%; in the experiment with Cotton it was 100%. In addition, the pest or weed control at 11208.5 g/ha in the experiment with Nutsedge is 95%; in the experiment with Pig Weed, 100%; in the experiment with Annual Morning Glory, 100%; with Velvet Leaf [2], 100%.
In the case of `CC(C)N1C(=O)c2ccccc2N(C(=O)CCl)S1(=O)=O` [COCH2 Cl, 1-(2-Chloroacetyl)-3-(1-methylethyl)-1H-2,1,3-benzothiadiazin-4(3H)-one-2,2-Dioxide], the pest or weed control at 358.672 g/ha was determined as 100% in the experiment on Jimson Weed and 70% in the experiment with Velvet Leaf [1]. The pest or weed control at 706.135 g/ha in the experiment with Jimson Weed and in the experiment with Velvet Leaf [1] was 100% throughout. Also, the plant injury at 358.672 g/ha is 10% with Soybean and 20% with Cotton. The plant injury at 706.135 g/ha is 10% with Soybean and 70% with Cotton. For the same compound, the pest or weed control at 11208.5 g/ha in the experiment with Nutsedge, in the experiment with Pig Weed, in the experiment on Annual Morning Glory and in the experiment on Velvet Leaf [2] was 100% each time.
With `COC(=O)N1c2ccccc2C(=O)N(C(C)C)S1(=O)=O` [CO2 CH3], the pest or weed control at 358.672 g/ha with Jimson Weed and in the experiment with Velvet Leaf [1] was 100% in each case. For the same compound, the pest or weed control at 706.135 g/ha with Jimson Weed and in the experiment with Velvet Leaf [1] was 100% in each case. Moreover, the plant injury at 358.672 g/ha with Soybean and in the experiment with Cotton was 0% each time. In addition, the plant injury at 706.135 g/ha was 0% with Soybean and 10% with Cotton. Besides, the pest or weed control at 11208.5 g/ha in the experiment with Nutsedge is 50%; in the experiment on Pig Weed it was 100%; in the experiment with Annual Morning Glory it was 100%; in the experiment on Velvet Leaf [2], 100%.
